Source: US7547763B2, “Sequences of an Ih ion channel and use thereof” (Forschungszentrum Julich GmbH, priority 1998, dated 2009)

Columns and labels:
SPIH channel [1] = assay: Blockade of the SPIH channel by extracellular Cs+ on outside-out membrane patches; type: cell-based, Strongylocentrotus purpuratus
Description: (§1) cDNA coding the SPIH polypeptide was transiently expressed in HEK293 cells, as described earlier (Baumann et al, 1994). SPIH-controlled currents were recorded with the patch-clamp method in the whole-cell configuration and cell-free membrane patches. The composition of various bath and pipette solutions is indicated in the legends of the figures (see below). The channels were activated by stepping the membrane voltage from +10 mV to various negative voltage values. Leakage currents were subtracted using a P/8 protocol. The voltage dependence of the probability that the channel is open was determined from tail currents at +10 mV. The blockade of the SPIH channel by Cs2+ was analyzed with outside-out membrane patches in the presence of 1 mM cAPM in a pipette solution. The solutions in the bath contained 0.03 to 10 mM CsCl. Relative ion permeabilities were calculated from the respective shift of Vrev, which was measured on cell-free inside-out membrane patches, when 100 mM K^+ in the bath had been replaced by Na^+, Li^+, Rb^+ or Cs^+.

SPIH channel [2] = target: T1, SPIH channel (Strongylocentrotus purpuratus, UniProt O76977); assay: Patch-clamp of SPIH currents on excised inside-out membrane patches of transfected HEK293 cells, modulation by cyclic nucleotides; type: cell-based
T1 sequence (O76977 1-767): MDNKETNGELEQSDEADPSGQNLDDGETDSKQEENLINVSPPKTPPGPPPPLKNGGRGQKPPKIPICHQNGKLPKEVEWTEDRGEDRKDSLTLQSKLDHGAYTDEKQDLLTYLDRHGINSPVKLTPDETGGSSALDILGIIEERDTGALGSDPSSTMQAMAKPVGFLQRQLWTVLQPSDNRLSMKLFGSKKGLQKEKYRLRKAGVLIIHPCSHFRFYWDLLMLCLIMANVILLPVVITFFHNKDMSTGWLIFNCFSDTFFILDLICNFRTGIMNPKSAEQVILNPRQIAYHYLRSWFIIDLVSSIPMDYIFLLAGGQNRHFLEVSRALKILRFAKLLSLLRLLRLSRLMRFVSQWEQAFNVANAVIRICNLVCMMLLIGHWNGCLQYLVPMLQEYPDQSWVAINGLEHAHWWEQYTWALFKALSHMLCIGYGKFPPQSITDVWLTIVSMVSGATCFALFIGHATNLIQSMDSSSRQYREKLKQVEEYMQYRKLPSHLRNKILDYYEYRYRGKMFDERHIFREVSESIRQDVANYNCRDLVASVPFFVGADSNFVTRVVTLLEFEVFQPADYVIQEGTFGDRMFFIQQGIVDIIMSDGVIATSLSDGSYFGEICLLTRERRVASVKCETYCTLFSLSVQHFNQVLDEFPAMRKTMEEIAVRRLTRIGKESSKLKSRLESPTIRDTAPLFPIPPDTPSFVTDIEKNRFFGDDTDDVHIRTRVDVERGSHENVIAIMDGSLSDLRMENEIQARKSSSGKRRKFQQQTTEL
Description: as §1

SPIH channel [3] = assay: Whole-cell patch-clamp of SPIH currents in transfected HEK293 cells, cyclic nucleotides or caged derivatives in the pipette; type: cell-based, Strongylocentrotus purpuratus
Description: as §1, with “The voltage dependence of the probability that the channel is open was determined from tail currents at +10 mV. The blockade of the SPIH channel by Cs2+ was analyzed with outside-out membrane patches in the presence of 1 mM cAPM in a pipette solution.” left out, “Cs^+. […] The voltage-step protocol is the same as in FIG. 2A. The bath contained (mM): 135 NaCl, 5 KCl, 1.8 CaCl2, 2.8 MgCl2 and 5 Hepes-NaOH at pH 7.4; the pipette solution contained […]” for “Cs^+.”

Q: Which effect on currents (SPIH channel [1]; 10 mM Cs+ in the bath) does the source give for `[Cs+]` [Cs^+] here?
A: The effect on currents was “inward currents disappeared completely”.

Q: And the Ki (SPIH channel [1]; at −70 mV, 1 mM cAMP in pipette, Hill fit, read-out: inhibitory constant Ki for block of standardized current I/Imax)?
A: Its Ki is 245 µM.

Q: Which results are given for `Nc1ncnc2c1ncn2[C@@H]1O[C@@H]2COP(=O)(O)O[C@H]2[C@H]1O` [cAMP]?
A: enhancement of the amplitudes of the voltage-activated currents (SPIH channel [2]; 1 mM cAMP, excised membrane patches): up to 20 fold; Hill coefficient n of the cAMP dependence of the SPIH current (SPIH channel [2]; inside-out patches, fit of Hill equation, mean of 10 experiments): 1.05; V1/2 of voltage dependence of Po (SPIH channel [2]; inside-out-patch tail currents, 1 mM cAMP in bath, Boltzmann fit): −84.7 mV; V1/2 of voltage dependence of Po (SPIH channel [3]; whole-cell tail currents, 1 mM cAMP in pipette, Boltzmann fit): −50.8 mV

Q: How did the “effect on amplitude of the SPIH currents” value (SPIH channel [2]; cGMP concentrations of up to 1 mM, excised membrane patches) turn out when `Nc1nc2c(ncn2[C@@H]2O[C@@H]3COP(=O)(O)O[C@H]3[C@H]2O)c(=O)[nH]1` [cGMP] was run?
A: Its value is “did not change the amplitude of the SPIH currents”.

Q: And the “effect on SPIH-induced whole-cell currents” value (SPIH channel [3]; 1 mM in the pipette)?
A: The value was “also changed the SPIH-induced currents”.
